Experimental data: US20260256792A1, “TREATMENT OF CHRONIC SPONTANEOUS URTICARIA BY ADMINISTERING (R)-2-[3-[4-AMINO-3-(2-FLUORO-4-PHENOXY-PHENYL)PYRAZOLO[3,4-D]PYRIMIDIN-1-YL]PIPERIDINE-1-CARBONYL]-4-METHYL-4-[4-(OXETAN-3-YL)PIPERAZIN-1-YL]PENT-2-ENENITRILE” (priority 2023, published 2026)

System: moderate-to-severe chronic spontaneous urticaria (CSU)
Assay: Phase 2 CSU study: Patient Global Impression of Severity (PGIS)
Type: in vivo, human
Details: for PGIS Change from baseline Mean (SD) / PGIS Change from baseline Median / PGIS Median / PGIS Percent change from baseline Mean (SD) / PGIS Percent change from baseline Median / PGIS category Mild, patients / PGIS category Moderate, patients / PGIS category None, patients / PGIS category Severe, patients: omalizumab-naïve population; for PGIS % Change difference for rilzabrutinib vs. placebo LS Mean (95% CI) / PGIS % Change from baseline LS Mean (SE) / PGIS Change difference for rilzabrutinib vs. placebo LS Mean (95% CI) / PGIS Change from baseline LS Mean (SE): omalizumab-naïve, ANCOVA
Source text: The study comprises a 12 week, randomized, double-blind, placebo-controlled, multi-center, dose-ranging efficacy and safety phase, followed by a 40 week open label extension (OLE) phase (see FIG. 1).
The study consists of three phases and an optional OLE phase.
The PGIS is a 1-item measure that asks participants to provide a self-assessment of their overall CSU severity for the past week on a 4 point scale. Response choices are: “None”, “Mild”, “Moderate” and “Severe”. The PGIC is a 1-item measure that asks the participant to provide a self-assessment of overall change in their CSU since the participant started taking the study medication on a 7-point scale. The response options range from “Very Much Better” to “Very Much Worse.” Patients were to complete questionnaires for the 2 items during their site visit.

## CC(C)(C=C(C#N)C(=O)N1CCC[C@@H](n2nc(-c3ccc(Oc4ccccc4)cc3F)c3c(N)ncnc32)C1)N1CCN(C2COC2)CC1 [rilzabrutinib, (R)-2-[3-[4-amino-3-(2-fluoro-4-phenoxy-phenyl)pyrazolo[3,4-d]pyrimidin-1-yl]piperidine-1-carbonyl]-4-methyl-4-[4-(oxetan-3-yl)piperazin-1-yl]pent-2-enenitrile]
400 mg TID
  quality of life as measured by PGIS: improvement
Week 2, 400 mg BID
  PGIS Change from baseline Mean (SD): −0.65
  PGIS Change from baseline Median: 0.00
  PGIS Median: 2.00
  PGIS Percent change from baseline Mean (SD): −23.12%
  PGIS Percent change from baseline Median: 0.00%
  PGIS category Mild, patients: 8 (25.8)
  PGIS category Moderate, patients: 14 (45.2)
  PGIS category None, patients: 5 (16.1)
  PGIS category Severe, patients: 4 (12.9)
  PGIS % Change difference for rilzabrutinib vs. placebo LS Mean (95% CI): −7.56 (−24.17, 9.05) %
  PGIS % Change from baseline LS Mean (SE): −26.23 (6.28) %
  PGIS Change difference for rilzabrutinib vs. placebo LS Mean (95% CI): −0.26 (−0.63, 0.11)
  PGIS Change from baseline LS Mean (SE): −0.76 (0.14)
Week 2, 400 mg QPM
  PGIS Change from baseline Mean (SD): −0.48
  PGIS Change from baseline Median: 0.00
  PGIS Median: 2.00
  PGIS Percent change from baseline Mean (SD): −17.68%
  PGIS Percent change from baseline Median: 0.00%
  PGIS category Mild, patients: 8 (24.2)
  PGIS category Moderate, patients: 17 (51.5)
  PGIS category None, patients: 0
  PGIS category Severe, patients: 8 (24.2)
  PGIS % Change difference for rilzabrutinib vs. placebo LS Mean (95% CI): 0.86 (−15.86, 17.59) %
  PGIS % Change from baseline LS Mean (SE): −17.80 (6.05) %
  PGIS Change difference for rilzabrutinib vs. placebo LS Mean (95% CI): 0.03 (−0.34, 0.41)
  PGIS Change from baseline LS Mean (SE): −0.47 (0.14)
Week 2, 400 mg TID
  PGIS Change from baseline Mean (SD): −0.94
  PGIS Change from baseline Median: 1.00
  PGIS Median: 1.00
  PGIS Percent change from baseline Mean (SD): −41.92%
  PGIS Percent change from baseline Median: −50.00%
  PGIS category Mild, patients: 17 (50.0)
  PGIS category Moderate, patients: 9 (26.5)
  PGIS category None, patients: 4 (11.8)
  PGIS category Severe, patients: 4 (11.8)
  PGIS % Change difference for rilzabrutinib vs. placebo LS Mean (95% CI): −22.00 (−38.77, −5.22) %
  PGIS % Change from baseline LS Mean (SE): −40.66 (6.06) %
  PGIS Change difference for rilzabrutinib vs. placebo LS Mean (95% CI): −0.46 (−0.83, −0.09)
  PGIS Change from baseline LS Mean (SE): −0.96 (0.13)
Week 4, 400 mg BID
  PGIS Change from baseline Mean (SD): −0.70
  PGIS Change from baseline Median: 0.00
  PGIS Median: 2.00
  PGIS Percent change from baseline Mean (SD): −27.78%
  PGIS Percent change from baseline Median: 0.00%
  PGIS category Mild, patients: 10 (30.3)
  PGIS category Moderate, patients: 15 (45.5)
  PGIS category None, patients: 5 (15.2)
  PGIS category Severe, patients: 3 (9.1)
  PGIS % Change difference for rilzabrutinib vs. placebo LS Mean (95% CI): −1.31 (−17.26, 14.65) %
  PGIS % Change from baseline LS Mean (SE): −29.83 (5.99) %
  PGIS Change difference for rilzabrutinib vs. placebo LS Mean (95% CI): −0.12 (−0.48, 0.25)
  PGIS Change from baseline LS Mean (SE): −0.81 (0.13)
Week 4, 400 mg QPM
  PGIS Change from baseline Mean (SD): −0.65
  PGIS Change from baseline Median: −0.50
  PGIS Median: 2.00
  PGIS Percent change from baseline Mean (SD): −25.49%
  PGIS Percent change from baseline Median: −16.67%
  PGIS category Mild, patients: 10 (29.4)
  PGIS category Moderate, patients: 15 (44.1)
  PGIS category None, patients: 1 (2.9)
  PGIS category Severe, patients: 8 (23.5)
  PGIS % Change difference for rilzabrutinib vs. placebo LS Mean (95% CI): 3.06 (−12.83, 18.95) %
  PGIS % Change from baseline LS Mean (SE): −25.46 (5.77) %
  PGIS Change difference for rilzabrutinib vs. placebo LS Mean (95% CI): 0.09 (−0.27, 0.44)
  PGIS Change from baseline LS Mean (SE): −0.61 (0.13)
Week 4, 400 mg TID
  PGIS Change from baseline Mean (SD): −1.07
  PGIS Change from baseline Median: 1.00
  PGIS Median: 1.00
  PGIS Percent change from baseline Mean (SD): −43.10%
  PGIS Percent change from baseline Median: −50.00%
  PGIS category Mild, patients: 15 (51.7)
  PGIS category Moderate, patients: 9 (31.0)
  PGIS category None, patients: 3 (10.3)
  PGIS category Severe, patients: 2 (6.9)
  PGIS % Change from baseline LS Mean (SE): −41.04 (6.24) %
  PGIS Change difference for rilzabrutinib vs. placebo LS Mean (95% CI): −0.27 (−0.62, 0.09)
  PGIS Change from baseline LS Mean (SE): −0.96 (0.13)
